Measurements taken from ChEMBL document CHEMBL1201862, “PubChem BioAssay data set” (2004).
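Where inhibition never reached the appropriate level, the endpoint shown equals the highest concentration tested. Otherwise, values were interpolated linearly from a five-concentration, 48-hour dose response in 96-well plates. GI50 marks 50% less growth.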 Activity calls are given as the source filed them. Rule as the data show it: active = GI50 up to about 1.1 µM and inactive = higher.

Columns and labels:
Assay in all cases: NCI anticancer screen, dose series, 48 h
OVCAR-3 = system: OVCAR-3
SF-539 = system: SF-539
HOP-62 = system: HOP-62
NCI-H460 = system: NCI-H460
MOLT-4 = system: MOLT-4
M14 = system: M14
A498 = system: A498
SN12C = system: SN12C
BT-549 = system: BT-549
CCRF-CEM = system: CCRF-CEM
TK-10 = system: TK-10
SW-620 = system: SW-620
NCI-H226 = system: NCI-H226
A549 = system: A549
COLO 205 = system: COLO 205
IGROV-1 = system: IGROV-1
PC-3 = system: PC-3
SF-268 = system: SF-268
HT-29 = system: HT-29
SK-MEL-5 = system: SK-MEL-5

Row | Compound | GI50 (OVCAR-3) | GI50 (SF-539) | GI50 (HOP-62) | GI50 (NCI-H460) | GI50 (MOLT-4) | GI50 (M14) | GI50 (A498) | GI50 (SN12C) | GI50 (BT-549) | GI50 (CCRF-CEM) | GI50 (TK-10) | GI50 (SW-620) | GI50 (NCI-H226) | GI50 (A549) | GI50 (COLO 205) | GI50 (IGROV-1) | GI50 (PC-3) | GI50 (SF-268) | GI50 (HT-29) | GI50 (SK-MEL-5)
1 | CCOC(=O)c1nc2cc(Cl)ccc2[nH]c1=O | > 100 µM (inactive) | > 100 µM (inactive) | > 100 µM (inactive) | 53.7 µM (inactive) | > 100 µM (inactive) | > 100 µM (inactive) | > 100 µM (inactive) | > 100 µM (inactive) | > 100 µM (inactive) | > 100 µM (inactive) | > 100 µM (inactive) | > 100 µM (inactive) | > 100 µM (inactive) | > 100 µM (inactive) | > 100 µM (inactive) | > 100 µM (inactive) | > 100 µM (inactive) | > 100 µM (inactive) | > 100 µM (inactive) | > 100 µM (inactive)
2 | COC1=CC(=O)C(C2CC(=O)c3c(O)cc(O)cc3O2)=CC1=O (stereo not given) | 18.5 µM (inactive) | 20.7 µM (inactive) | 17.1 µM (inactive) | 23 µM (inactive) | 1.96 µM (inactive) | 17.7 µM (inactive) | 29.9 µM (inactive) | 19.8 µM (inactive) | 19.8 µM (inactive) | 0.658 µM (active) | 16.9 µM (inactive) | 20.2 µM (inactive) | 19.4 µM (inactive) | 39.9 µM (inactive) | 17.9 µM (inactive) | 19.1 µM (inactive) | 16.5 µM (inactive) | 20.7 µM (inactive) | > 45.1 µM (inactive) | 16.8 µM (inactive)
3 | CC(C)=CCC/C(C)=C/CC/C(C)=C/CSc1ccc(Cl)cc1C(=O)O | 17 µM (inactive) | 18.9 µM (inactive) | 14.9 µM (inactive) | 18.7 µM (inactive) | 23.1 µM (inactive) | 19.6 µM (inactive) | 19.8 µM (inactive) | 26.3 µM (inactive) | 20.2 µM (inactive) | 21.2 µM (inactive) | 19.2 µM (inactive) | 22 µM (inactive) | 17.4 µM (inactive) | 16.5 µM (inactive) | 22.4 µM (inactive) | 17.5 µM (inactive) | 16.2 µM (inactive) | 17.9 µM (inactive) | 21.1 µM (inactive) | 23.4 µM (inactive)
4 | CCCCCCCC1(N=[N+]=[N-])C(=O)c2ccccc2N(C)C1=O (stereo not given) | 49 µM (inactive) | > 100 µM (inactive) | > 100 µM (inactive) | > 100 µM (inactive) | > 100 µM (inactive) | > 100 µM (inactive) | > 100 µM (inactive) | > 100 µM (inactive) | 88.5 µM (inactive) | 7.55 µM (inactive) | > 100 µM (inactive) | > 100 µM (inactive) | > 100 µM (inactive) | 68.5 µM (inactive) | > 100 µM (inactive) | > 100 µM (inactive) | > 100 µM (inactive) | 93.8 µM (inactive) | 40.1 µM (inactive) | 69.8 µM (inactive)
5 | CN(O)C(=O)/C=C/c1ccc(OCc2cccc(Cl)c2)cc1 | 38.6 µM (inactive) | 29.2 µM (inactive) | 24.4 µM (inactive) | 16.5 µM (inactive) | 8.77 µM (inactive) | 28 µM (inactive) | 17 µM (inactive) | 20.1 µM (inactive) | 21.8 µM (inactive) | 8.26 µM (inactive) | 48.6 µM (inactive) | 26.9 µM (inactive) | 21.4 µM (inactive) | 21.2 µM (inactive) | 28.9 µM (inactive) | 17.3 µM (inactive) | 24.5 µM (inactive) | 23.9 µM (inactive) | 18 µM (inactive) | 24.2 µM (inactive)
6 | Nc1ccc(Oc2ccc(C3(c4ccc(Oc5ccc(N)c(O)c5)cc4)C4CC5CC(C4)CC3C5)cc2)cc1O | 1.56 µM (inactive) | 1.12 µM (active) | 2.5 µM (inactive) | 1.73 µM (inactive) | 1.66 µM (inactive) | 1.71 µM (inactive) | 5.74 µM (inactive) | 1.9 µM (inactive) | 1.66 µM (inactive) | 2.82 µM (inactive) | 2.12 µM (inactive) | 1.77 µM (inactive) | 1.83 µM (inactive) | 1.81 µM (inactive) | 0.484 µM (active) | 1.75 µM (inactive) | 1.68 µM (inactive) | 1.53 µM (inactive) | 1.64 µM (inactive) | 1.58 µM (inactive)
7 | O=C(NCCCCCCCCNC(=O)c1cc(-c2ccccc2)nc2ccccc12)c1cc(-c2ccccc2)nc2ccccc12 | > 100 µM (inactive) | 71.1 µM (inactive) | 38.8 µM (inactive) | > 100 µM (inactive) | > 100 µM (inactive) | > 100 µM (inactive) | > 100 µM (inactive) | > 100 µM (inactive) | 57.7 µM (inactive) | > 100 µM (inactive) | > 100 µM (inactive) | > 100 µM (inactive) | > 100 µM (inactive) | > 100 µM (inactive) | > 100 µM (inactive) | > 100 µM (inactive) | > 100 µM (inactive) | 68.9 µM (inactive) | > 100 µM (inactive) | > 100 µM (inactive)
